Data from ChEMBL document CHEMBL3885881, “DrugMatrix”.

Organism: Rattus norvegicus
Experiment: DrugMatrix - Regimen: Daily Repeat
Format: toxicity, organism-based, Sprague-Dawley
Design: regimen Daily Repeat, gender Male, age 6-8 weeks
Conditions: in vivo, po, route oral GAVAGE, vehicle 100 % WATER; for ABSOLUTE BASOPHIL / ABSOLUTE EOSINOPHIL / ABSOLUTE LYMPHOCYTE / ABSOLUTE MONOCYTE / ABSOLUTE SEGMENTED NEUTROPHIL / BASOPHIL / EOSINOPHIL / ERYTHROCYTE COUNT / HEMATOCRIT / HEMOGLOBIN / LEUKOCYTE COUNT / LYMPHOCYTE / MEAN CORPUSCULAR HEMOGLOBIN / MEAN CORPUSCULAR HEMOGLOBIN CONCENTRATION / MEAN CORPUSCULAR VOLUME / MONOCYTE / NEUTROPHIL / NUCLEATED RED BLOOD CELLS / PLATELET COUNT: tissue Blood; for ALANINE AMINOTRANSFERASE / ALBUMIN / ALKALINE PHOSPHATASE / ASPARTATE AMINOTRANSFERASE / BLOOD UREA NITROGEN / CARBON DIOXIDE / CHLORIDE / CHOLESTEROL / CREATINE PHOSPHOKINASE / CREATININE / GLUCOSE / LACTATE DEHYDROGENASE / LIPASE / PHOSPHORUS / POTASSIUM / SODIUM / TOTAL BILIRUBIN / TOTAL PROTEIN / URIC ACID: tissue Plasma
[1] = 0 mg/kg, 72 h, dose level Control, time 3 day
[2] = 0 mg/kg, 120 h, dose level Control, time 5 day
[3] = 45 mg/kg, 72 h, dose level Low, time 3 day
[4] = 45 mg/kg, 120 h, dose level Low, time 5 day

CCOC(N)=O
ABSOLUTE BASOPHIL [1]: 0 CELLS/uL
ABSOLUTE EOSINOPHIL [1]: 123.17 CELLS/uL
ABSOLUTE LYMPHOCYTE [1]: 12677.83 CELLS/uL
ABSOLUTE MONOCYTE [1]: 66.17 CELLS/uL
ABSOLUTE SEGMENTED NEUTROPHIL [1]: 1149.5 CELLS/uL
BASOPHIL [1]: 0%
EOSINOPHIL [1]: 0.83%
ERYTHROCYTE COUNT [1]: 5.26 x10E6/uL
HEMATOCRIT [1]: 33.07%
HEMOGLOBIN [1]: 13.43 G/DL
LEUKOCYTE COUNT [1]: 14.02 x10E3/uL
LYMPHOCYTE [1]: 90.17%
MEAN CORPUSCULAR HEMOGLOBIN [1]: 25.62 pg
MEAN CORPUSCULAR HEMOGLOBIN CONCENTRATION [1]: 40.65 G/DL
MEAN CORPUSCULAR VOLUME [1]: 63 fL
MONOCYTE [1]: 0.5%
NEUTROPHIL [1]: 8.5%
NUCLEATED RED BLOOD CELLS [1]: 0.17 /100WBC
PLATELET COUNT [1]: 1142.83 x10E3/uL
ALANINE AMINOTRANSFERASE [1]: 45.17 u/L
ALBUMIN [1]: 3.78 G/DL
ALKALINE PHOSPHATASE [1]: 340.17 u/L
ASPARTATE AMINOTRANSFERASE [1]: 77.33 u/L
BLOOD UREA NITROGEN [1]: 14.67 mg/dL
CARBON DIOXIDE [1]: 28.67 mmol/L
CHLORIDE [1]: 101.17 MEQ/L
CHOLESTEROL [1]: 77.67 mg/dL
CREATINE PHOSPHOKINASE [1]: 263.67 u/L
CREATININE [1]: 0.15 mg/dL
GLUCOSE [1]: 169.33 mg/dL
LACTATE DEHYDROGENASE [1]: 230 u/L
LIPASE [1]: 9.67 u/L
PHOSPHORUS [1]: 11.8 mg/dL
POTASSIUM [1]: 5.91 MEQ/L
SODIUM [1]: 142.88 MEQ/L
TOTAL BILIRUBIN [1]: 0.22 mg/dL
TOTAL PROTEIN [1]: 5.7 G/DL
URIC ACID [1]: 1.35 mg/dL
ABSOLUTE BASOPHIL [2]: 0 CELLS/uL
ABSOLUTE EOSINOPHIL [2]: 125 CELLS/uL
ABSOLUTE LYMPHOCYTE [2]: 13809 CELLS/uL
ABSOLUTE MONOCYTE [2]: 351 CELLS/uL
ABSOLUTE SEGMENTED NEUTROPHIL [2]: 1581.67 CELLS/uL
BASOPHIL [2]: 0%
EOSINOPHIL [2]: 0.67%
ERYTHROCYTE COUNT [2]: 5.53 x10E6/uL
HEMATOCRIT [2]: 34.83%
HEMOGLOBIN [2]: 13.9 G/DL
LEUKOCYTE COUNT [2]: 15.87 x10E3/uL
LYMPHOCYTE [2]: 87.5%
MEAN CORPUSCULAR HEMOGLOBIN [2]: 25.25 pg
MEAN CORPUSCULAR HEMOGLOBIN CONCENTRATION [2]: 40.08 G/DL
MEAN CORPUSCULAR VOLUME [2]: 63.05 fL
MONOCYTE [2]: 2.17%
NEUTROPHIL [2]: 9.67%
NUCLEATED RED BLOOD CELLS [2]: 0 /100WBC
PLATELET COUNT [2]: 1044 x10E3/uL
ALANINE AMINOTRANSFERASE [2]: 50.67 u/L
ALBUMIN [2]: 4.33 G/DL
ALKALINE PHOSPHATASE [2]: 395 u/L
ASPARTATE AMINOTRANSFERASE [2]: 86 u/L
BLOOD UREA NITROGEN [2]: 15.33 mg/dL
CARBON DIOXIDE [2]: 29.33 mmol/L
CHLORIDE [2]: 101.5 MEQ/L
CHOLESTEROL [2]: 71.33 mg/dL
CREATINE PHOSPHOKINASE [2]: 323.17 u/L
CREATININE [2]: 0.18 mg/dL
GLUCOSE [2]: 145.67 mg/dL
LACTATE DEHYDROGENASE [2]: 389.5 u/L
LIPASE [2]: 9.83 u/L
PHOSPHORUS [2]: 11.35 mg/dL
POTASSIUM [2]: 6.39 MEQ/L
SODIUM [2]: 142.77 MEQ/L
TOTAL BILIRUBIN [2]: 0.18 mg/dL
TOTAL PROTEIN [2]: 6.1 G/DL
URIC ACID [2]: 1.52 mg/dL
ABSOLUTE BASOPHIL [3]: 0 CELLS/uL
ABSOLUTE EOSINOPHIL [3]: 0 CELLS/uL
ABSOLUTE LYMPHOCYTE [3]: 12480 CELLS/uL
ABSOLUTE MONOCYTE [3]: 82.67 CELLS/uL
ABSOLUTE SEGMENTED NEUTROPHIL [3]: 1104 CELLS/uL
BASOPHIL [3]: 0%
EOSINOPHIL [3]: 0%
ERYTHROCYTE COUNT [3]: 5.25 x10E6/uL
HEMATOCRIT [3]: 34.27%
HEMOGLOBIN [3]: 13.87 G/DL
LEUKOCYTE COUNT [3]: 13.67 x10E3/uL
LYMPHOCYTE [3]: 91.33%
MEAN CORPUSCULAR HEMOGLOBIN [3]: 26.43 pg
MEAN CORPUSCULAR HEMOGLOBIN CONCENTRATION [3]: 40.47 G/DL
MEAN CORPUSCULAR VOLUME [3]: 65.23 fL
MONOCYTE [3]: 0.67%
NEUTROPHIL [3]: 8%
NUCLEATED RED BLOOD CELLS [3]: 0.33 /100WBC
PLATELET COUNT [3]: 1224 x10E3/uL
ALANINE AMINOTRANSFERASE [3]: 48.67 u/L
ALBUMIN [3]: 3.73 G/DL
ALKALINE PHOSPHATASE [3]: 327 u/L
ASPARTATE AMINOTRANSFERASE [3]: 72 u/L
BLOOD UREA NITROGEN [3]: 14 mg/dL
CARBON DIOXIDE [3]: 31.33 mmol/L
CHLORIDE [3]: 100.67 MEQ/L
CHOLESTEROL [3]: 75.67 mg/dL
CREATINE PHOSPHOKINASE [3]: 181.67 u/L
CREATININE [3]: 0.14 mg/dL
GLUCOSE [3]: 154 mg/dL
LACTATE DEHYDROGENASE [3]: 151.67 u/L
LIPASE [3]: 10 u/L
PHOSPHORUS [3]: 12.13 mg/dL
POTASSIUM [3]: 7.17 MEQ/L
SODIUM [3]: 142.87 MEQ/L
TOTAL BILIRUBIN [3]: 0.17 mg/dL
TOTAL PROTEIN [3]: 5.53 G/DL
URIC ACID [3]: 1.63 mg/dL
ABSOLUTE BASOPHIL [4]: 0 CELLS/uL
ABSOLUTE EOSINOPHIL [4]: 0 CELLS/uL
ABSOLUTE LYMPHOCYTE [4]: 10640.67 CELLS/uL
ABSOLUTE MONOCYTE [4]: 292.67 CELLS/uL
ABSOLUTE SEGMENTED NEUTROPHIL [4]: 1133.33 CELLS/uL
BASOPHIL [4]: 0%
EOSINOPHIL [4]: 0%
ERYTHROCYTE COUNT [4]: 5.57 x10E6/uL
HEMATOCRIT [4]: 35.5%
HEMOGLOBIN [4]: 14.37 G/DL
LEUKOCYTE COUNT [4]: 12.07 x10E3/uL
LYMPHOCYTE [4]: 88.67%
MEAN CORPUSCULAR HEMOGLOBIN [4]: 25.77 pg
MEAN CORPUSCULAR HEMOGLOBIN CONCENTRATION [4]: 40.47 G/DL
MEAN CORPUSCULAR VOLUME [4]: 63.8 fL
MONOCYTE [4]: 2.33%
NEUTROPHIL [4]: 9%
NUCLEATED RED BLOOD CELLS [4]: 0 /100WBC
PLATELET COUNT [4]: 1349.67 x10E3/uL
ALANINE AMINOTRANSFERASE [4]: 45 u/L
ALBUMIN [4]: 4.53 G/DL
ALKALINE PHOSPHATASE [4]: 393.33 u/L
ASPARTATE AMINOTRANSFERASE [4]: 72 u/L
BLOOD UREA NITROGEN [4]: 14.67 mg/dL
CARBON DIOXIDE [4]: 33 mmol/L
CHLORIDE [4]: 101 MEQ/L
CHOLESTEROL [4]: 75 mg/dL
CREATINE PHOSPHOKINASE [4]: 138.67 u/L
CREATININE [4]: 0.19 mg/dL
GLUCOSE [4]: 156.33 mg/dL
LACTATE DEHYDROGENASE [4]: 85.67 u/L
LIPASE [4]: 10 u/L
PHOSPHORUS [4]: 11.27 mg/dL
POTASSIUM [4]: 6.72 MEQ/L
SODIUM [4]: 144.8 MEQ/L
TOTAL BILIRUBIN [4]: 0.23 mg/dL
TOTAL PROTEIN [4]: 6.3 G/DL
URIC ACID [4]: 1.6 mg/dL
